Data set [1] can be described thus: Water / aqueous solubility at 25 °C. In kind it is physicochemical.
Data set [2] can be described thus: Solubility in ethanol or acetonitrile. The data set is classed as physicochemical. On the procedure: PIH has very limited solubility in water and ethanol, and in fact, to solubilize 28.6 grams of PIH would require 30,000 cc of absolute ethanol. Nevertheless, the aforesaid molar concentrations were used to produce a suspension to which was added the ethereal HCI solution.
As a result of applicant's work, this procedure raises even more questions of operability than the immediately preceding one, since the acetonitrile solubility of the precipitate obtained after treatment of an authentic sample of PIH with ethereal HCI, is virtually nil. Specifically, attempts to solubilize the product succeeded in dissolving only 40 ma of material per 500 cc of hot acetonitrile--a ratio of 1 gram per 12.5 liters of acetonitrile (a ratio of […]) and no precipitate was obtained after addition of dry ether--even upon cooling the solution. Applicants were unable to liberate any product from the recrystallization system disclosed in U.S. 2,810,725.
This cannot be accomplished since the solubility of PIH in ethanol is approximately 1 mg/mL and would require a volume of 30,000 cc for dissolution as described and not 500 cc.
There was utilized a suspension of 57.2 mg/cc (1.43 g, 5 mMol in 25 cc absolute ethanol) to which were added two equivalents (10 mmoles) of 4 N ethereal HCI (2.5 cc) and stirred for one hour. The light yellow starting material became a copious off-white suspension. This was filtered and dried to give 1.68 g of a solid with melting point 250°-252°C. (dec) with discoloration beginning at 240° C. An authentic sample of PIH dihydrochloride, synthesized according to Example 1 supra, melts at 255°-257° C.

Data set [3] can be described thus: Human studies of oral PIH: iron excretion, toxicity, palatability. In kind it is in vivo. The following applies: in the mouth. The text has this: There has, heretofore been no convenient, safe and effective orally administered chelator that has been developed for clinical use.
The conditions of data set [4]: noted by Sah 1953; cited from earlier work.
For data set [5] the following is noted: below pH 3; chromatographic investigations; cited from earlier work.
For data set [6] the following is noted: continuous infusion in solution; rats; cited from earlier work.
The conditions of data set [7]: cited from earlier work.
For data set [8] the following is noted: cited from earlier work. The source holds these as a separate data set.
Data set [9] is described as follows: Stability/degradation in aqueous medium of given pH. The data set is classed as physicochemical. The following applies: for degraded at 3 h: aqueous medium, read-out: degradation after three hours.
A short description of data set [10]: Stability of the solid to light and anhydrous heat. In kind it is physicochemical.
A short description of data set [11]: Iron complexation (chelation). The following applies: aqueous solutions in vitro and in vivo.
The nature of data set [12]: Biliary iron excretion in iron-overloaded rats after gavage, bile duct cannulated. The data set is classed as in vivo, Male Sprague-Dawley rats. Conditions: gavage 100 mg/kg, versus PIH equivalent dosage. The procedure:
Measurement of the bioefficiency of iron chelators have been carried out in rats using the methods of Brittenham supra and Park et al,(C. Park, B. R. Bacon, G. M. Brittenham and N. Tas. Lab Invest. 57:555-63 (1987).
Male Sprague-Dawley rats weighing approximately 200 g were housed in cages and randomly assigned to three groups containing at least 6 animals. The groups received (i) one ml of saline alone administered by gavage (ii) 1 mL saline with PIH as the free base, 100 mg/kg body weight, added just prior to administration by gavage and (iii) 1 mL saline with PIHDH, 100 mg/kg body weight, added just prior to administration by gavage. The doses of chelators tested are chosen to provide direct comparisons with previous assay data. Animals receiving the chelators or saline by gavage receive doses 45 minutes prior to surgery. Animals are placed under anesthesia and the bile duct cannulated to permit continuous collection of bile during the assay time period. The bile is collected at half-hour intervals for 5 or 6 hours and the iron content determined spectrophotometrically, using bathophen-anthroline sulfonate for color development as published by Pippard et al, (M. J. Pippard, D. K. Johnson and C. A. Finch. Blood. 58:685-92 (1981)). […]

A short description of data set [13]: Total daily iron excretion in iron overloaded patients (enteric granules or glycine-buffered capsules). The following applies: patients with iron overload.
Protocol: Five human subjects were administered PIHDH (PIH(HCI)2) as either enteric coated granules at 546 mg three times daily representing the lowest dose tested at 20 mg/kg per day.
Where [14] appears, read: water, 25 °C (FIG. 16), read-out: water solubility.

Converted amounts (≈) assume the structure as drawn. “And” between values parts separate entries of the source, which are not always exact repeats. Identical values can stand only once. “Also recorded” adds a separate entry of the source. Counter-ions that a name gives are not always drawn. Like-named read-outs stand apart in the source and are kept apart here.

`Cc1ncc(CO)c(/C=N/NC(=O)c2ccncc2)c1O` [PIH, 3-hydroxy-5-hydroxy-methyl-2-methyl-4-pyridinylcarboxaldehyde 4' pyridinecarboxylic acid hydrazone]: the water solubility in data set [1] (water, 25 °C (FIG. 16)) amounted to 0.14 mg/mL (≈ 489 µM). The solubility – broadly, the concentration that dissolves in the medium under given conditions – in [1] (setting [14]) was determined as 0.14 mg/mL (≈ 489 µM). For the same molecule, the “volume of absolute ethanol required to dissolve 28.6 g PIH” value in data set [2] (absolute ethanol) was 30,000 cc and 30.000 cc. Further, the solubility in ethanol result in data set [2] (ethanol) is reported as “approximately 1 mg/mL”. Moreover, the taste entry in data set [3] is on record as “unpleasant taste”. Besides, in data set [4], the “water solubility, in words (literature)” value was “very low water solubility”. In addition, in data set [5], the “instability under acidic conditions” value was “dissolution below pH 3 can lead to decomposition”. In addition, the “iron excretion compared to desferrioxamine” value in data set [6] was “quantitatively similar iron excretion”. Also, the “iron excretion compared with subcutaneously injected desferrioxamine” value in data set [7] (oral PIH at three times the molar rates, preliminary human studies) is reported as “less than half of that expected with subcutaneously injected desferrioxamine”. In addition, in [7] (oral capsule, >60 mg/kg, people), the “toxicity at doses needed for sufficient iron excretion” value is given as “toxicity characterized by elevated hepatic enzymes”. The “oral dose needed to elicit sufficient iron excretion” value in data set [7] (oral capsule, people) is given as over 60 mg/kg. Moreover, in data set [7] (oral, humans), the “oral efficacy / iron removal in humans” value is reported as “poor oral efficacy; also recorded: inadequate levels of iron are removed in humans”. In addition, the palatability result in [7] (oral, phase I clinical trials) was “highly unpalatable with a lingering unpleasant taste and oral sensation”. Besides, the “absorption after oral administration” value in [8] was “not fully absorbed in vivo after oral administration”. The “PIH crystals in feces” value in data set [8] (treated animals/subjects, oral) is recorded as “presence of PIH crystals in the feces of treated animals; also recorded: crystals actually visible in feces of treated subjects”.

On to `Cc1ncc(CO)c(C=NNC(=O)c2ccncc2)c1O` [hydrochloride-1.5 hydrate of PIH, 3-hydroxy-5-(hydroxymethyl) -2-methyl-4-pyridinecarboxaldehyde-4' pyridin ecar-boxylic acid hydrazone monohydrochloride trihemihydrate], for which, in data set [1] (water, 25 °C (FIG. 16)), the water solubility is 34 mg/mL. Besides, the “water solubility, in words” value in data set [1] (water, listed as monohydrochloride 1.5 hydrate) is “slower solubilization”.

Consider `Cc1ncc(CO)c(C=NNC(=O)c2ccncc2)c1O` [product], for which, in data set [2] (acetonitrile), the “solubility in acetonitrile, in words” value is listed as “virtually nil” and the “solubility of product in acetonitrile” value is recorded as “less than 0.1 mg/mL”. Further, the “amount of material dissolved per 500 cc hot acetonitrile” value in data set [2] (per 500 cc hot acetonitrile) is 40 ma.

Turning to `Cc1ncc(CO)c(C=NNC(=O)c2ccncc2)c1O` [PIHDH, 3-hydroxy-5-(hydroxy-methyl)-2-methyl-4-pyridinecarboxaldehyde-4' pyridinecarboxylic acid hydrazone dihydrochloride], the “water solubility relative to PIH (times more water soluble)” value in data set [1] (PIHDH versus PIH base, dihydrochloride) was 450 times and > 450 times. For the same molecule, the solubility in data set [1] (setting [14]) was 63 mg/mL. Moreover, the “water solubility, in words” value in [1] (water, dihydrochloride) was “better water solubility than the free base and its related hydrated species”. Also, the degraded at 3 h in data set [9] (pH 1.29, 3 h) came to 44.1%; in data set [9] (pH 2.78, 3 h), 17.7%. Moreover, the decomposition when buffered result in data set [9] (buffered above 3.0 to 7.0) is reported as “virtually little to virtually no decomposition”. Moreover, the “degradation after three hours” value in data set [9] (pH 6.8, 3 h) is “no degradation”. Besides, in data set [10], the stability of crystals result was “stable to light and anhydrous heat”. Besides, the “ability to complex iron” value in data set [11] is “preserves its ability to complex iron in aqueous solutions in vitro and in vivo”. The “total biliary iron excretion relative to PIH (percent)” value in data set [12] is listed as 250%. Moreover, in data set [12], the “total biliary iron excretion relative to PIH (times greater)” value was found to be 2.5 times. Moreover, the “absorption of enteric granules or buffered capsules” value in data set [13] is “adequately absorbed”.

On to `Cc1ncc(CO)c(C=NNC(=O)c2ccncc2)c1O` [Pyridoxal isonicotinoyl hydrazone isethionate], for which the solubility worked out at 36 mg/mL in data set [1] (0.1 n hcl, read-out: solubility in 0.1N HCl) and 2.7 mg/mL in [1] (water, read-out: water solubility).

The record behind these values is patent US5834492A, “Water soluble orally effective iron chelator” (Jacobus Pharmaceutical Co., priority 1997, dated 1998).
